One assay deals with Adenosine receptor A2a (Rattus norvegicus, UniProt P30543). The experiment in a line: biochemical.
The target of another assay is T1, Adenosine receptor A1 (Rattus norvegicus, UniProt P25099).
T1 sequence (P25099 whole entry): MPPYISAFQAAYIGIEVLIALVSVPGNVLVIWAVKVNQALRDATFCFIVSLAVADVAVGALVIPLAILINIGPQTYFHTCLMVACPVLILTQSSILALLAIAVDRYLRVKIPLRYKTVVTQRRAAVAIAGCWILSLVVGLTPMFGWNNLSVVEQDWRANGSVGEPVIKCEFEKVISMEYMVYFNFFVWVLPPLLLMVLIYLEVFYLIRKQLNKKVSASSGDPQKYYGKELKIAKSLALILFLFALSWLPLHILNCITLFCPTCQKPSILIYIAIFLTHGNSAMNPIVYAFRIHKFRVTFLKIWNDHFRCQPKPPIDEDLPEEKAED
The experiment in a line: biochemical.

8 compounds from ChEMBL document CHEMBL1134790, “Design, synthesis, and evaluation of novel A2A adenosine receptor agonists” (J Med Chem, 2001) can be followed below.

Adenosine receptor A2a, sequence (P30543 whole entry): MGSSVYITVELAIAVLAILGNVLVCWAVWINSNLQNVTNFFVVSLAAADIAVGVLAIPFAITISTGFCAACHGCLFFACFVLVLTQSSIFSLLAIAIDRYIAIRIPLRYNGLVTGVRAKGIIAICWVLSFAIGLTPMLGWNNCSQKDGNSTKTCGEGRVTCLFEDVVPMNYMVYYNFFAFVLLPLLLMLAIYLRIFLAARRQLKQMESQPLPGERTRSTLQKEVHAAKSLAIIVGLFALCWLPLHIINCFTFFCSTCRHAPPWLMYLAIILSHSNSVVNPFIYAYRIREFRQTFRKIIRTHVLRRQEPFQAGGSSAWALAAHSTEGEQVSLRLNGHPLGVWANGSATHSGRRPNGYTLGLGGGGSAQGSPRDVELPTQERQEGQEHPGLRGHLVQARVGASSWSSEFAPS
Description for Adenosine receptor A1: Binding affinity towards adenosine A1 receptor in rat brain cortex
Description for Adenosine receptor A2a: Binding affinity towards adenosine A2A receptor in rat brain striatum

`Nc1nc(OCCCCc2ccccc2)nc2c1ncn2[C@@H]1O[C@H](CO)[C@@H](O)[C@H]1O`: the Ki – broadly, a measure of affinity in units of concentration, obtained from inhibition or displacement – at Adenosine receptor A2a came to 170 nM; at Adenosine receptor A1, 2400 nM.

As for `COc1ccccc1CCOc1nc(N)c2ncn(C3O[C@H](CO)[C@@H](O)[C@H]3O)c2n1` (stereo partly specified), the Ki on Adenosine receptor A2a amounted to 36 nM; at Adenosine receptor A1, 190 nM.

For `CCCCCCOc1nc(N)c2ncn(C3O[C@H](CO)[C@@H](O)[C@H]3O)c2n1` (stereo partly specified), the figures for the Ki at Adenosine receptor A2a and at Adenosine receptor A1 were 160 nM and 890 nM, respectively.

In the case of `Nc1nc(OCCO)nc2c1ncn2C1O[C@H](CO)[C@@H](O)[C@H]1O` (stereo partly specified), the Ki is 690 nM at Adenosine receptor A2a and 72 nM on Adenosine receptor A1.

In the case of `CCNC(=O)[C@H]1OC(n2cnc3c(N)nc(CC4CCC(C(=O)O)CC4)nc32)[C@H](O)[C@@H]1O` (stereo partly specified), the Ki at Adenosine receptor A2a amounted to 20.1 nM; at Adenosine receptor A1, 292 nM.

`Nc1nc(OCCc2cccc(F)c2)nc2c1ncn2[C@@H]1O[C@H](CO)[C@@H](O)[C@H]1O` (stereo in doubt; 24): the Ki was 58 nM on Adenosine receptor A2a and 150 nM on Adenosine receptor A1.

Consider `Nc1nc(OCCc2cccc(F)c2)nc2c1ncn2[C@@H]1O[C@H](CO)[C@@H](O)[C@H]1O` (stereo in doubt; 92), for which the Ki was 110 nM on Adenosine receptor A2a and 180 nM on Adenosine receptor A1.

On to `Nc1nc(OCCc2ccc(Cl)cc2)nc2c1ncn2[C@@H]1O[C@H](CO)[C@@H](O)[C@H]1O` [SONEDENOSON], for which the Ki was 22 nM at Adenosine receptor A2a and 89 nM on Adenosine receptor A1.
